Measured values from patent publication US7713994B2 (Wyeth LLC, priority 2005, dated 2010).
Where two headings read alike, the source gives them in different places.

Legend:
BT474 = test: Cytotoxicity assay (SRB), BT474; format: cell-based
Summary of the method: (§1)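 Seeding: BT474 12000, HCT-116 4000, LoVo 6000, MCF-7 6000 cells/well; overnight attachment, 37 °C, 7% CO2. Drug exposure 3 d (BT474 6 d), RPMI 1640 + 5% FBS. Readout: TCA fix, 0.4% SRB, Tris solubilisation, A540.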

cyclin E/CDK2 enzyme = biological target: T1, cyclin E/CDK2 enzyme (Homo sapiens, UniProt P24941); test: CDK2 ELISA kinase assay (phospho-Rb ser 795 detection); format: biochemical
T1 construct: made in house; host or cells: Sf9 insect cells, recombinant baculovirus
Summary of the method: (§2)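 GST-Rb C-terminal fragment coated on wells; kinase reaction: 200 μM ATP, 0.5 mg/ml BSA, HEPES pH 7.5, 10 mM MgCl2, baculovirus/Sf9 cyclin-CDK, 30° C, 1 h. Readout anti-phospho-Rb Ser795, HRP, TMB, A450. Test compound 10 ug/ml final.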

LoVo = test: Cytotoxicity assay (SRB), LoVo; format: cell-based; details: Homo sapiens, LoVo, 72 h, LoVo cells, SRB, read-out: In Vitro Cellular Activity IC50 LOVO
Summary of the method: as §1

MCF-7 = test: Cytotoxicity assay (SRB), MCF-7; format: cell-based; details: Homo sapiens, MCF7, 72 h, MCF-7 cells, SRB, read-out: In Vitro Cellular Activity IC50 MCF-7
Summary of the method: as §1

cyclin B/CDK1 enzyme = biological target: T2, cyclin B/CDK1 enzyme (Homo sapiens, UniProt P06493); test: CDK1 ELISA kinase assay (phospho-Rb ser 795 detection); format: biochemical
T2 construct: purchased New England BioLabs; host or cells: Sf9 insect cells, recombinant baculovirus
Summary of the method: as §2

HCT-116 = test: Cytotoxicity assay (SRB), HCT-116; format: cell-based; details: Homo sapiens, HCT-116, 72 h, HCT116 cells, SRB, read-out: In Vitro Cellular Activity IC50 HCT116
Summary of the method: as §1

cyclin D1/cdk 4 enzyme = biological target: T3, cyclin D1/cdk 4 enzyme (Homo sapiens, UniProt P11802); test: CDK4 ELISA kinase assay (phospho-Rb ser 795 detection); format: biochemical
T3 construct: made in house; host or cells: Sf9 insect cells, recombinant baculovirus
Summary of the method: as §2

[1] = Homo sapiens, BT-474, 144 h, BT474 cells, 6 days, SRB; read-out: In Vitro Cellular Activity IC50 BT474
[2] = In Vitro Enzyme Assay, cyclin E/CDK2, read-out: CDK2 IC50
[3] = In Vitro Enzyme Assay, cyclin B/CDK1, read-out: CDK1 IC50
[4] = In Vitro Enzyme Assay, cyclin D1/cdk 4, read-out: CDK4 IC50
[5] = In Vitro Enzyme Assays, read-out: CDK2 IC50
[6] = In Vitro Enzyme Assays, read-out: CDK1 IC50
[7] = In Vitro Enzyme Assays, 200 μM ATP, read-out: CDK4 IC50
[8] = Homo sapiens, BT-474, 144 h, BT474 cells, SRB, 6 days; read-out: In Vitro Cellular Activity IC50 BT474

T2 sequence (P06493 whole entry): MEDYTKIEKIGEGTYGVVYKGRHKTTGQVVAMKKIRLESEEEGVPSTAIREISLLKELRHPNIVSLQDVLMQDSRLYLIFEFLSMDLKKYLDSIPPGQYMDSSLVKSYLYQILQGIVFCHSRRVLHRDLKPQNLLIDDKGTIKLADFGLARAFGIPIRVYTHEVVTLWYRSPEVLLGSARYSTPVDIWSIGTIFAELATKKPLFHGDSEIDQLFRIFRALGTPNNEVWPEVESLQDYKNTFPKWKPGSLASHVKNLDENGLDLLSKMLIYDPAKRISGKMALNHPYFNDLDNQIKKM
T2 sequence (P14635 whole entry partner): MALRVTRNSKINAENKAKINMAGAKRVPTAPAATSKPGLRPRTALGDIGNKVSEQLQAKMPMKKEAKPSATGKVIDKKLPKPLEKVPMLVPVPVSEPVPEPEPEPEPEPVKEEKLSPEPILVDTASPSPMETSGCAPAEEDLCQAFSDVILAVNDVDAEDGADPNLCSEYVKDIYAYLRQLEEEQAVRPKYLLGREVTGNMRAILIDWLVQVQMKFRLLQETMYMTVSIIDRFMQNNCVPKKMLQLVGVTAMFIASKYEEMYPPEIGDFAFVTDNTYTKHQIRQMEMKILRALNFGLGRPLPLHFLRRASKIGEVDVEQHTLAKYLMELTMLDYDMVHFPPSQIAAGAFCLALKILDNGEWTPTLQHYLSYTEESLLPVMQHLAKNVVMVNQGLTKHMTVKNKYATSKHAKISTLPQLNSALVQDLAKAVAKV
T3 sequence (P11802 whole entry, species assumed): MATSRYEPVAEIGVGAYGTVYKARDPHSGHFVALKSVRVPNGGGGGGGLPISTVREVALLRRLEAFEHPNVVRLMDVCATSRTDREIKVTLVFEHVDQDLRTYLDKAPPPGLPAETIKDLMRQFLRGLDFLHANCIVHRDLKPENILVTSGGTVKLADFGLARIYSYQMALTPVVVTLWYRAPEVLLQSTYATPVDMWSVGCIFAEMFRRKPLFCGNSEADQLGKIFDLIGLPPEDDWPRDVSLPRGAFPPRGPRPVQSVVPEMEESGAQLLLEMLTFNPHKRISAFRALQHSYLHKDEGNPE
T3 sequence (P24385 whole entry partner, species assumed): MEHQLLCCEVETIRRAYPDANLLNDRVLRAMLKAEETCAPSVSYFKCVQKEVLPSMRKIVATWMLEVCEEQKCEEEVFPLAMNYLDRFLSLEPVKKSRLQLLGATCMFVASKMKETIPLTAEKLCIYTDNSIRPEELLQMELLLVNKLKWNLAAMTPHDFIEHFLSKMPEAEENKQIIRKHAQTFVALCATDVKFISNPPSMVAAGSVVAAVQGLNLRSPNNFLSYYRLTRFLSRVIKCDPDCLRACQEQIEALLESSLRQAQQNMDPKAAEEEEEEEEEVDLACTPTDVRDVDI

SMILES	IC50 (cyclin E/CDK2 enzyme; [2])	IC50 (cyclin B/CDK1 enzyme; [3])	IC50 (cyclin D1/cdk 4 enzyme; [4])	IC50 (cyclin E/CDK2 enzyme; [5])	IC50 (cyclin B/CDK1 enzyme; [6])	IC50 (cyclin D1/cdk 4 enzyme; [7])	IC50 (BT474; [1])	IC50 (LoVo; 3 days)	IC50 (MCF-7; 3 days)	IC50 (HCT-116; 3 days)	IC50 (BT474; [8])	IC50 (LoVo; three days)	IC50 (MCF-7; three days)	IC50 (HCT-116; three days)
Nc1cnc(CN/C=C2\C(=O)NC(=O)c3ccc(I)cc32)cc1O [Example 424, 4-{[(5-Amino-4-hydroxy-pyridin-2-ylmethyl)-amino]-methylene}-6-iodo-4H-isoquinoline-1,3-dione]				1.5 µM	6.3 µM	0.06 µM	12.7 µM	> 50 µM	> 50 µM	> 50 µM				
O=C1NC(=O)c2ccc(-c3ccsc3)cc2/C1=C/Nc1ccc(CN2CCCCC2)cc1 [Example 104, (4Z)-4-({[4-(Piperidin-1-ylmethyl)phenyl]amino}methylene)-6-thien-3-ylisoquinoline-1,3(2H,4H)-dione]				> 50 µM	> 50 µM	0.05 µM					3 µM	1.3 µM	3.4 µM	1 µM
O=C1NC(=O)c2ccc(Br)cc2/C1=C/NCc1ccc(OCc2ccccc2)c(O)c1 [Example 147, (4Z)-4-({[4-(Benzyloxy)-3-hydroxybenzyl]amino}methylene)-6-bromoisoquinoline-1,3(2H,4H)-dione]				27.7 µM	> 50 µM	4.6 µM					> 50 µM	40 µM	36 µM	38 µM
CN(C)CCCN/C=C1\C(=O)NC(=O)c2ccc(Br)cc21 [Example 306, (Z)-6-Bromo-4-((3-(dimethylamino)propylamino)methylene)isoquinoline-1,3(2H,4H)-dione]				> 50 µM	> 50 µM	6.7 µM					37 µM	13 µM	25 µM	26 µM
O=C1NC(=O)c2ccc(Br)cc2/C1=C/NCc1cc(O)c(O)c(O)c1 [Example 79]				2.2 µM	42.6 µM	0.026 µM					37.7 µM	49.5 µM	> 50 µM	> 50 µM
O=C1NC(=O)c2ccc(I)cc2/C1=C/Nc1ccc(C2CCCN2CCO)cc1 (stereo not shown) [Example 464, 4-({4-[1-(2-Hydroxy-ethyl)-pyrrolidin-2-yl]-phenylamino}-methylene)-6-iodo-4H-isoquinoline-1,3-dione]	> 50 µM	> 50 µM	0.14 µM				6.6 µM	4.6 µM	2.4 µM	3.2 µM				
O=C1NC(=O)c2ccc(I)cc2/C1=C/Nc1ccc(N2CCNCC2)nc1 [Example 410, (4Z)-6-Iodo-4-{[(6-piperazin-1-ylpyridin-3-yl)amino]methylene}isoquinoline-1,3(2H,4H)-dione]				17.6 µM	25.3 µM	2.1 µM	2.3 µM	6.8 µM	5.1 µM	2.8 µM				
CN1CCN(c2ccc(N/C=C3\C(=O)NC(=O)c4ccc(-c5ccc(F)cc5)cc43)cc2)CC1 [Example 263, (4Z)-6-(4-Fluorophenyl)-4-({[4-(4-methylpiperazin-1-yl)phenyl]amino}methylene)-isoquinoline-1,3(2H,4H)-dione]				> 50 µM	> 50 µM	0.5 µM					2.9 µM	2.9 µM	3.1 µM	1.3 µM
CC(C)(O)[C@H]1CCCN1Cc1ccc(N/C=C2\C(=O)NC(=O)c3ccc(I)cc32)cc1 [Example 369, D-4-({4-[2-(1-Hydroxy-1-methyl-ethyl)-pyrrolidin-1-ylmethyl]-phenylamino}-methylene)-6-iodo-4H-isoquinoline-1,3-dione]				> 50 µM	> 50 µM	0.46 µM					1.2 µM	5 µM	1.7 µM	4.3 µM
COC(C)C1CCCN1Cc1ccc(N/C=C2\C(=O)NC(=O)c3ccc(I)cc32)cc1 (stereo not shown) [Example 375, 6-Iodo-4-({4-[2-(1-methoxy-ethyl)-pyrrolidin-1-ylmethyl]-phenylamino}-methylene)-4H-isoquinoline-1,3-dione]				> 50 µM	> 50 µM	0.39 µM					0.52 µM	3.2 µM	0.71 µM	3.9 µM
O=C1NC(=O)c2ccc(I)cc2/C1=C/NCc1ccc(NC(=O)c2ccccc2)c(O)c1 [Example 334, N-[2-Hydroxy-4-({[(Z)-(6-iodo-1,3-dioxo-2,3-dihydroisoquinolin-4(1H)-ylidene)methyl]amino}methyl)phenyl]benzamide]				7.8 µM	> 50 µM	0.07 µM					7.2 µM	5.9 µM	7.9 µM	7.1 µM

The next lines start with results.

IC50 (cyclin E/CDK2 enzyme; [2])	IC50 (cyclin B/CDK1 enzyme; [3])	IC50 (cyclin D1/cdk 4 enzyme; [4])	IC50 (cyclin E/CDK2 enzyme; [5])	IC50 (cyclin B/CDK1 enzyme; [6])	IC50 (cyclin D1/cdk 4 enzyme; [7])	SMILES	IC50 (BT474; [1])	IC50 (LoVo; 3 days)	IC50 (MCF-7; 3 days)	IC50 (HCT-116; 3 days)	IC50 (BT474; [8])	IC50 (LoVo; three days)	IC50 (MCF-7; three days)	IC50 (HCT-116; three days)
11.5 µM	21.1 µM	0.27 µM				COc1cccc(-c2ccc3c(c2)C(=CNCc2ccc(O)c(O)c2)C(=O)NC3=O)c1 [Example 765, 4-[(3,4-Dihydroxy-benzylamino)-methylene]-6-(3-methoxy-phenyl)-4H-isoquinoline-1,3-dione]	33.4 µM	18.3 µM	14.4 µM	15.8 µM				
32.4 µM	32.4 µM	0.45 µM				NS(=O)(=O)c1ccc(CNC=C2C(=O)NC(=O)c3ccc(-c4ccc(F)cc4)cc32)cc1 [Example 738, 4-({[6-(4-Fluoro-phenyl)-1,3-dioxo-2,3-dihydro-1H-isoquinolin-4-ylidenemethyl]-amino}-methyl)-benzenesulfonamide]	47.1 µM	39.1 µM	15.8 µM	18.8 µM				
10.7 µM	40.6 µM	0.51 µM				O=C1NC(=O)c2ccc(-c3ccc(C(F)(F)F)cc3)cc2C1=CNCc1ccc(O)c(O)c1 [Example 772, 4-[(3,4-Dihydroxy-benzylamino)-methylene]-6-(4-trifluoromethyl-phenyl)-4H-isoquinoline-1,3-dione]	28.1 µM	15.4 µM	12.2 µM	15.6 µM				
> 50 µM	> 50 µM	0.06 µM				CCCOc1ccc(CN/C=C2\C(=O)NC(=O)c3ccc(-c4ccoc4)cc32)cc1O [Example 485, (4Z)-6-(3-Furyl)-4-{[(3-hydroxy-4-propoxybenzyl)amino]methylene}isoquinoline-1,3(2H,4H)-dione]	1.07 µM	0.94 µM	1.42 µM	1.36 µM				
33.9 µM	> 50 µM	2.48 µM				O=C1NC(=O)c2ccc(C=CCc3ccccc3)cc2C1=CNCc1ccc(O)c(O)c1 [Example 660, 4-[(3,4-Dihydroxy-benzylamino)-methylene]-6-(3-phenyl-propenyl)-4H-isoquinoline-1,3-dione]	10.4 µM	7.6 µM	6.1 µM	7 µM				
5 µM	22.4 µM	0.1 µM				CCCCn1ccc(CN/C=C2\C(=O)NC(=O)c3ccc(I)cc32)cc1=O [Example 529, (4Z)-6-Iodo-4-({[(1-butyl-2-oxo-1,2-dihydropyridin-4-yl)methyl]amino}methylene)isoquinoline-1,3(2H,4H)-dione]	1.2 µM	1.5 µM	2.4 µM	1.7 µM				
> 50 µM	> 50 µM	0.9 µM				CN1CCN(c2ccc(NC=C3C(=O)NC(=O)c4ccc(C=CCCCO)cc43)cc2)CC1 [Example 797, 6-(5-Hydroxy-pent-1-enyl)-4-{[4-(4-methyl-piperazin-1-yl)-phenylamino]-methylene}-4H-isoquinoline-1,3-dione]	19.3 µM	6.3 µM	6.7 µM	6.5 µM				
4.1 µM	8.1 µM	0.01 µM				O=C1NC(=O)c2ccc(-c3ccco3)cc2C1=CNCc1ccc(O)c(O)c1 [Example 621, 4-[(3,4-Dihydroxy-benzylamino)-methylene]-6-furan-2-yl-4H-isoquinoline-1,3-dione]	3.5 µM	8.7 µM	6.8 µM	9.7 µM				
